Source: PMC5218480 (PLoS ONE, 2017)

Tested on: MV-4-11 cells
Experiment: Gene expression microarray analysis (Affymetrix PrimeView) and GSEA
Format: cell-based, human
Parameters: RFU PODN (11730768_x_at) / Fold change /veh PODN (11730768_x_at) / RFU LINC00158 (11744669_a_at) / Fold change /veh LINC00158 (11744669_a_at) / RFU DUSP10 (11751237_a_at) / Fold change /veh DUSP10 (11751237_a_at) / RFU ID3 (11757404_x_at) / Fold change /veh ID3 (11757404_x_at) / RFU PLEKHG5 (11737974_s_at) / Fold change /veh PLEKHG5 (11737974_s_at) / RFU LRRC4B (11730491_at) / Fold change /veh LRRC4B (11730491_at) / RFU GIMAP4 (11747438_a_at) / Fold change /veh GIMAP4 (11747438_a_at) / RFU KRT8 (11758183_x_at) / Fold change /veh KRT8 (11758183_x_at) / RFU CNN1 (11734310_a_at) / Fold change /veh CNN1 (11734310_a_at) / RFU VPS37D (11726825_at) / Fold change /veh VPS37D (11726825_at) / RFU C10orf10 (11716522_x_at) / Fold change /veh C10orf10 (11716522_x_at) / RFU KIR2DL2 /// KIR2DL4 /// KIR2DL5A /// KIR2DL5B /// KIR2DS1 /// KIR2DS2 /// KIR2DS3 /// KIR2DS4 /// KIR3DL3 /// KIR3DL3 /// KIR3DS1 (11738374_at) / Fold change /veh KIR2DL2 /// KIR2DL4 /// KIR2DL5A /// KIR2DL5B /// KIR2DS1 /// KIR2DS2 /// KIR2DS3 /// KIR2DS4 /// KIR3DL3 /// KIR3DL3 /// KIR3DS1 (11738374_at) / RFU C1QL1 (11718748_at) / Fold change /veh C1QL1 (11718748_at) / RFU TMPRSS4 (11747572_a_at) / Fold change /veh TMPRSS4 (11747572_a_at) / RFU HAMP (11756126_x_at) / Fold change /veh HAMP (11756126_x_at) / RFU RNFT2 (11725882_a_at) / Fold change /veh RNFT2 (11725882_a_at) / RFU NR4A2 (11747474_a_at) / Fold change /veh NR4A2 (11747474_a_at) / RFU ABCC12 (11746883_a_at) / Fold change /veh ABCC12 (11746883_a_at) / RFU TMEM136 (11760407_x_at) / Fold change /veh TMEM136 (11760407_x_at) / RFU CLDN22 /// WWC2 (11732394_at) / Fold change /veh CLDN22 /// WWC2 (11732394_at) / RFU HLA-DPB1 (11760878_x_at) / Fold change /veh HLA-DPB1 (11760878_x_at) / RFU SPINT1 (11716480_a_at) / Fold change /veh SPINT1 (11716480_a_at) / RFU GAP43 (11754022_s_at) / Fold change /veh GAP43 (11754022_s_at) / RFU A4GNT (11735810_at) / Fold change /veh A4GNT (11735810_at) / RFU PRB3 (11715151_x_at) / Fold change /veh PRB3 (11715151_x_at) / RFU TUBB4B (11761932_at) / Fold change /veh TUBB4B (11761932_at) / RFU CAPN14 (11732068_a_at) / Fold change /veh CAPN14 (11732068_a_at) / RFU TMCC2 (11721928_a_at) / Fold change /veh TMCC2 (11721928_a_at) / RFU IRGQ (11745062_a_at) / Fold change /veh IRGQ (11745062_a_at) / RFU FAM174B (11720279_a_at) / Fold change /veh FAM174B (11720279_a_at) / RFU TMPRSS4 (11748680_a_at) / Fold change /veh TMPRSS4 (11748680_a_at) / RFU FAM212B (11763350_a_at) / Fold change /veh FAM212B (11763350_a_at) / RFU PLEKHG5 (11743358_a_at) / Fold change /veh PLEKHG5 (11743358_a_at) / RFU ZSCAN30 (11745921_a_at) / Fold change /veh ZSCAN30 (11745921_a_at) / RFU CMKLR1 (11741424_a_at) / Fold change /veh CMKLR1 (11741424_a_at) / RFU LOC101060620 /// MAPK8IP1 (11723275_at) / Fold change /veh LOC101060620 /// MAPK8IP1 (11723275_at) / RFU SPTSSB (11747773_x_at) / Fold change /veh SPTSSB (11747773_x_at) / RFU PRSS12 (11739890_at) / Fold change /veh PRSS12 (11739890_at) / RFU BIN1 (11741810_x_at) / Fold change /veh BIN1 (11741810_x_at) / RFU WNT11 (11732464_a_at) / Fold change /veh WNT11 (11732464_a_at) / RFU C10orf10 (11716521_a_at) / Fold change /veh C10orf10 (11716521_a_at) / RFU C5orf56 (11738089_at) / Fold change /veh C5orf56 (11738089_at) / RFU CYB561 (11721691_x_at) / Fold change /veh CYB561 (11721691_x_at) / RFU ANKRD19P (11752326_a_at) / Fold change /veh ANKRD19P (11752326_a_at) / RFU OR2T12 /// OR2T33 /// OR2T8 (11738714_s_at) / Fold change /veh OR2T12 /// OR2T33 /// OR2T8 (11738714_s_at) / RFU VCAN (11748164_a_at) / Fold change /veh VCAN (11748164_a_at) / RFU JSRP1 (11732532_at) / Fold change /veh JSRP1 (11732532_at) / RFU KRTAP10-11 (11738290_x_at) / Fold change /veh KRTAP10-11 (11738290_x_at) / RFU MYO3A (11730013_a_at) / Fold change /veh MYO3A (11730013_a_at) / RFU EBF3 (11725865_a_at) / Fold change /veh EBF3 (11725865_a_at) / RFU CAMK2N1 (11719241_x_at) / Fold change /veh CAMK2N1 (11719241_x_at) / RFU C5orf56 (11738088_a_at) / Fold change /veh C5orf56 (11738088_a_at) / RFU OLFML3 (11715873_a_at) / Fold change /veh OLFML3 (11715873_a_at) / RFU LOC100653217 /// NTM (11731650_a_at) / Fold change /veh LOC100653217 /// NTM (11731650_a_at) / RFU MAPK11 (11762145_a_at) / Fold change /veh MAPK11 (11762145_a_at) / RFU FIZ1 (11724087_x_at) / Fold change /veh FIZ1 (11724087_x_at) / RFU OASL (11726364_x_at) / Fold change /veh OASL (11726364_x_at) / RFU SOX15 (11748057_x_at) / Fold change /veh SOX15 (11748057_x_at) / RFU CD79A (11719716_a_at) / Fold change /veh CD79A (11719716_a_at) / RFU HIST1H1D (11736915_at) / Fold change /veh HIST1H1D (11736915_at) / RFU CASKIN2 (11723855_a_at) / Fold change /veh CASKIN2 (11723855_a_at) / RFU LOC730098 (11760151_x_at) / Fold change /veh LOC730098 (11760151_x_at) / RFU OR4N2 (11742367_at) / Fold change /veh OR4N2 (11742367_at) / RFU PRRT2 (11749266_a_at) / Fold change /veh PRRT2 (11749266_a_at) / RFU SNX32 (11753110_a_at) / Fold change /veh SNX32 (11753110_a_at) / RFU CDHR5 (11726645_a_at) / Fold change /veh CDHR5 (11726645_a_at) / RFU RCAN1 (11760418_a_at) / Fold change /veh RCAN1 (11760418_a_at) / RFU FAM167A (11723789_a_at) / Fold change /veh FAM167A (11723789_a_at) / RFU FAM26E (11764081_at) / Fold change /veh FAM26E (11764081_at) / RFU ISYNA1 (11749810_s_at) / Fold change /veh ISYNA1 (11749810_s_at) / RFU ACY1 (11761880_at) / Fold change /veh ACY1 (11761880_at) / RFU 11764098_at / Fold change /veh 11764098_at / RFU SAMD14 (11745864_x_at) / Fold change /veh SAMD14 (11745864_x_at) / RFU NPB (11741838_a_at) / Fold change /veh NPB (11741838_a_at) / RFU TMPRSS6 (11731388_a_at) / Fold change /veh TMPRSS6 (11731388_a_at) / RFU KRTAP10-2 (11738614_at) / Fold change /veh KRTAP10-2 (11738614_at) / RFU ARHGAP8 /// PRR5-ARHGAP8 (11727945_x_at) / Fold change /veh ARHGAP8 /// PRR5-ARHGAP8 (11727945_x_at) / RFU KRTAP5-7 /// NADSYN1 (11734609_at) / Fold change /veh KRTAP5-7 /// NADSYN1 (11734609_at) / RFU RASL12 (11751679_a_at) / Fold change /veh RASL12 (11751679_a_at) / RFU CDKN2B (11736163_a_at) / Fold change /veh CDKN2B (11736163_a_at) / RFU PRF1 (11729649_at) / Fold change /veh PRF1 (11729649_at) / RFU, ZNF638 /// ZNF638-IT1 / Fold change vs veh, ZNF638 /// ZNF638-IT1 / RFU, PANK3 / Fold change vs veh, PANK3 / RFU, SH3YL1 / Fold change vs veh, SH3YL1 / RFU, ZEB2 / Fold change vs veh, ZEB2 / RFU, NRIP1 / Fold change vs veh, NRIP1 / RFU, PTTG1IP / Fold change vs veh, PTTG1IP / RFU, CAPN2 / Fold change vs veh, CAPN2 / RFU, MED14 / Fold change vs veh, MED14 / RFU, SNORA58 / Fold change vs veh, SNORA58 / RFU, C1orf63 / Fold change vs veh, C1orf63 / RFU, LRRFIP1 / Fold change vs veh, LRRFIP1 / RFU, NDUFAF7 / Fold change vs veh, NDUFAF7 / RFU, SLC12A2 / Fold change vs veh, SLC12A2 / RFU, IBTK / Fold change vs veh, IBTK / RFU, ESF1 / Fold change vs veh, ESF1 / Fold change vs veh, TMEM50B / RFU, TAOK1 / Fold change vs veh, TAOK1 / RFU, ACBD3 / Fold change vs veh, ACBD3 / RFU, TMA16 / Fold change vs veh, TMA16 / RFU, RWDD3 / Fold change vs veh, RWDD3 / RFU, BCAT1 / Fold change vs veh, BCAT1 / RFU, EDEM3 / Fold change vs veh, EDEM3 / RFU, TMEM33 / Fold change vs veh, TMEM33 / RFU, WDR75 / Fold change vs veh, WDR75 / RFU, AHCTF1 / Fold change vs veh, AHCTF1 / RFU, TFRC / Fold change vs veh, TFRC / RFU, ZDHHC17 / Fold change vs veh, ZDHHC17 / RFU, NOM1 / Fold change vs veh, NOM1 / RFU, ARL8B / Fold change vs veh, ARL8B / RFU, ZBTB11 / Fold change vs veh, ZBTB11 / RFU, TAMM41 / Fold change vs veh, TAMM41 / RFU, KIAA1704 /// LOC100996395 / Fold change vs veh, KIAA1704 /// LOC100996395 / RFU, ING1 / Fold change vs veh, ING1 / RFU, TRMT61B / Fold change vs veh, TRMT61B / RFU, FUBP3 / Fold change vs veh, FUBP3 / RFU, TP53 / Fold change vs veh, TP53 / RFU, TNKS2 / Fold change vs veh, TNKS2 / RFU, ZFP14 / Fold change vs veh, ZFP14 / RFU, ACTR2 / Fold change vs veh, ACTR2 / RFU, PPP3R1 / Fold change vs veh, PPP3R1 / RFU, PIK3R1 / Fold change vs veh, PIK3R1 / RFU, HNRNPA1 / Fold change vs veh, HNRNPA1 / RFU, RNF170 / Fold change vs veh, RNF170 / RFU, ZNF28 / Fold change vs veh, ZNF28 / RFU, RNGTT / Fold change vs veh, RNGTT / RFU, OGT / Fold change vs veh, OGT / RFU, BRD1 / Fold change vs veh, BRD1 / RFU, MARS / Fold change vs veh, MARS / RFU, ZNF655 / Fold change vs veh, ZNF655 / RFU, FAHD1 / Fold change vs veh, FAHD1 / RFU, BDP1 / Fold change vs veh, BDP1 / RFU, LRRCC1 / Fold change vs veh, LRRCC1 / RFU, ARID1A / Fold change vs veh, ARID1A / RFU, ZNF146 / Fold change vs veh, ZNF146 / RFU, ZNF330 / Fold change vs veh, ZNF330 / RFU, GPN3 / Fold change vs veh, GPN3 / RFU, C9orf123 / Fold change vs veh, C9orf123 / RFU, N4BP2L2 / Fold change vs veh, N4BP2L2 / RFU, ARFIP1 / Fold change vs veh, ARFIP1 / RFU, FAM179B / Fold change vs veh, FAM179B / RFU, BCL10 / Fold change vs veh, BCL10 / RFU, UHRF1BP1L / Fold change vs veh, UHRF1BP1L / RFU, BET1 / Fold change vs veh, BET1 / RFU, CNOT2 / Fold change vs veh, CNOT2 / RFU, ZNF268 / Fold change vs veh, ZNF268 / Fold change vs veh, ZNF507 / RFU, DGCR2 / Fold change vs veh, DGCR2 / RFU, WDSUB1 / Fold change vs veh, WDSUB1 / Fold change vs veh, HSP90B1 /// MIR3652 / RFU, ADSS / Fold change vs veh, ADSS / RFU, GK / Fold change vs veh, GK / RFU, ZNF148 / Fold change vs veh, ZNF148 / RFU, TAF9 / Fold change vs veh, TAF9 / RFU, SLC1A5 / Fold change vs veh, SLC1A5 / RFU, SLMO2 / Fold change vs veh, SLMO2 / RFU, ABCC4 / Fold change vs veh, ABCC4 / RFU, LOC101060439 /// RAP1B / Fold change vs veh, LOC101060439 /// RAP1B / RFU, RFX7 / Fold change vs veh, RFX7 / RFU, GTPBP10 / Fold change vs veh, GTPBP10 / RFU, CNEP1R1 / Fold change vs veh, CNEP1R1 / RFU, BIVM-ERCC5 /// ERCC5 / Fold change vs veh, BIVM-ERCC5 /// ERCC5 / RFU, ILF3 / Fold change vs veh, ILF3 / RFU 11762660_at / Fold change /veh 11762660_at / RFU VCAN (11757783_s_at) / Fold change /veh VCAN (11757783_s_at) / RFU DDX43 (11728927_at) / Fold change /veh DDX43 (11728927_at) / RFU KRT8 (11758188_x_at) / Fold change /veh KRT8 (11758188_x_at) / RFU NKD1 (11759106_at) / Fold change /veh NKD1 (11759106_at) / RFU SRD5A1 (11742802_a_at) / Fold change /veh SRD5A1 (11742802_a_at) / RFU TPSAB1 /// TPSB2 (11721975_s_at) / Fold change /veh TPSAB1 /// TPSB2 (11721975_s_at) / RFU GSTM3 (11746129_a_at) / Fold change /veh GSTM3 (11746129_a_at) / RFU IL23R (11737362_x_at) / Fold change /veh IL23R (11737362_x_at) / RFU TMEM51 (11727254_a_at) / Fold change /veh TMEM51 (11727254_a_at) / RFU PIWIL2 (11732686_x_at) / Fold change /veh PIWIL2 (11732686_x_at) / RFU ORM1 (11744905_x_at) / Fold change /veh ORM1 (11744905_x_at) / RFU CCDC152 (11743942_at) / Fold change /veh CCDC152 (11743942_at) / RFU ECM1 (11717891_a_at) / Fold change /veh ECM1 (11717891_a_at) / RFU IL23R (11748794_a_at) / Fold change /veh IL23R (11748794_a_at) / RFU TNFAIP8L3 (11732012_x_at) / Fold change /veh TNFAIP8L3 (11732012_x_at) / RFU MBOAT4 (11741988_at) / Fold change /veh MBOAT4 (11741988_at) / RFU 11764193_at / Fold change /veh 11764193_at / RFU TMEM53 (11763286_at) / Fold change /veh TMEM53 (11763286_at) / RFU MAGEB2 (11727129_at) / Fold change /veh MAGEB2 (11727129_at) / RFU TMEM200A (11744735_a_at) / Fold change /veh TMEM200A (11744735_a_at) / RFU CCDC152 (11751479_a_at) / Fold change /veh CCDC152 (11751479_a_at) / RFU FAM211A (11726209_a_at) / Fold change /veh FAM211A (11726209_a_at) / RFU RGS16 (11746705_a_at) / Fold change /veh RGS16 (11746705_a_at) / RFU VCAN (11755009_s_at) / Fold change /veh VCAN (11755009_s_at) / RFU RHOB (11743442_s_at) / Fold change /veh RHOB (11743442_s_at) / RFU RGS16 (11720943_a_at) / Fold change /veh RGS16 (11720943_a_at) / RFU RGS16 (11720944_at) / Fold change /veh RGS16 (11720944_at) / RFU, VPS4B / Fold change vs veh, VPS4B / RFU, CREB1 / Fold change vs veh, CREB1 / RFU, DNAJC13 / Fold change vs veh, DNAJC13 / RFU, GNAQ / Fold change vs veh, GNAQ / RFU, CDK5R1 / Fold change vs veh, CDK5R1 / RFU, ZRANB3 / Fold change vs veh, ZRANB3 / RFU, CUL4A / Fold change vs veh, CUL4A / RFU, CCNY / Fold change vs veh, CCNY / RFU, UFL1 / Fold change vs veh, UFL1 / RFU, COG3 / Fold change vs veh, COG3 / RFU, DIAPH2 / Fold change vs veh, DIAPH2 / RFU, SKA2 / Fold change vs veh, SKA2 / RFU, AFF3 / Fold change vs veh, AFF3 / RFU, LMF1 / Fold change vs veh, LMF1 / RFU, IPO11 / Fold change vs veh, IPO11 / RFU, DFFB / Fold change vs veh, DFFB / RFU, FOXP1 / Fold change vs veh, FOXP1 / RFU, CARD8 / Fold change vs veh, CARD8 / RFU, STRN3 / Fold change vs veh, STRN3 / RFU, ADK / Fold change vs veh, ADK / RFU, RASSF2 / Fold change vs veh, RASSF2 / RFU, WIPF1 / Fold change vs veh, WIPF1 / RFU, LARP1B / Fold change vs veh, LARP1B / RFU, RASA1 / Fold change vs veh, RASA1 / RFU, RB1 / Fold change vs veh, RB1 / RFU, PPFIA1 / Fold change vs veh, PPFIA1 / RFU, MAT2A / Fold change vs veh, MAT2A / RFU, CCT5 / Fold change vs veh, CCT5 / RFU, WDR92 / Fold change vs veh, WDR92 / RFU, CUX1 / Fold change vs veh, CUX1 / RFU, TTC7A / Fold change vs veh, TTC7A / RFU, TMEM135 / Fold change vs veh, TMEM135 / RFU, DEPTOR / Fold change vs veh, DEPTOR / RFU, CPM / Fold change vs veh, CPM / RFU, DNAJB6 / Fold change vs veh, DNAJB6 / RFU, CACNA2D3 / Fold change vs veh, CACNA2D3 / RFU, DTX4 / Fold change vs veh, DTX4 / RFU, TFCP2 / Fold change vs veh, TFCP2 / RFU, GMCL1 /// GMCL1P1 / Fold change vs veh, GMCL1 /// GMCL1P1 / RFU, AEBP2 / Fold change vs veh, AEBP2 / RFU, SNHG1 /// SNORD22 /// SNORD25 /// SNORD26 /// SNORD27 /// SNORD28 /// SNORD29 /// SNORD31 / Fold change vs veh, SNHG1 /// SNORD22 /// SNORD25 /// SNORD26 /// SNORD27 /// SNORD28 /// SNORD29 /// SNORD31 / Fold change (Aza/veh), C12orf56 (ProbeSet 11735607_a_at) / Fold change (ACY-1035/veh), C12orf56 (ProbeSet 11735607_a_at) / Fold change (Aza/veh), FGFR1OP (ProbeSet 11751329_s_at) / Fold change (ACY-1035/veh), FGFR1OP (ProbeSet 11751329_s_at) / Fold change (Aza/veh), VPS36 (ProbeSet 11739960_a_at) / Fold change (ACY-1035/veh), VPS36 (ProbeSet 11739960_a_at) / RFU SYPL1 (11715823_x_at) / Fold change /veh SYPL1 (11715823_x_at) / RFU IGFBP7 (11715501_s_at) / Fold change /veh IGFBP7 (11715501_s_at) / RFU REEP3 (11722064_at) / Fold change /veh REEP3 (11722064_at) / RFU IGLL1 (11728026_x_at) / Fold change /veh IGLL1 (11728026_x_at): dose or concentration left out as unconfirmed
Settings: ProbeSet 11731583_a_at; LIST D

## Nc1ncn([C@@H]2O[C@H](CO)[C@@H](O)[C@H]2O)c(=O)n1 [azacitidine]
  Fold change vs veh, LARP1B: 0.75
